Data on 6 compounds can be found in US20240270762A1, “PENICILLIN-BINDING PROTEIN INHIBITORS” (priority 2021, published 2024).

≈ marks a conversion by molar mass, not a printed value.

Test [1] concerns the target T1, A. baumannii PBP1a (Acinetobacter baumannii, UniProt A0ABX6CK30).
T1 sequence (A0ABX6CK30 1-851): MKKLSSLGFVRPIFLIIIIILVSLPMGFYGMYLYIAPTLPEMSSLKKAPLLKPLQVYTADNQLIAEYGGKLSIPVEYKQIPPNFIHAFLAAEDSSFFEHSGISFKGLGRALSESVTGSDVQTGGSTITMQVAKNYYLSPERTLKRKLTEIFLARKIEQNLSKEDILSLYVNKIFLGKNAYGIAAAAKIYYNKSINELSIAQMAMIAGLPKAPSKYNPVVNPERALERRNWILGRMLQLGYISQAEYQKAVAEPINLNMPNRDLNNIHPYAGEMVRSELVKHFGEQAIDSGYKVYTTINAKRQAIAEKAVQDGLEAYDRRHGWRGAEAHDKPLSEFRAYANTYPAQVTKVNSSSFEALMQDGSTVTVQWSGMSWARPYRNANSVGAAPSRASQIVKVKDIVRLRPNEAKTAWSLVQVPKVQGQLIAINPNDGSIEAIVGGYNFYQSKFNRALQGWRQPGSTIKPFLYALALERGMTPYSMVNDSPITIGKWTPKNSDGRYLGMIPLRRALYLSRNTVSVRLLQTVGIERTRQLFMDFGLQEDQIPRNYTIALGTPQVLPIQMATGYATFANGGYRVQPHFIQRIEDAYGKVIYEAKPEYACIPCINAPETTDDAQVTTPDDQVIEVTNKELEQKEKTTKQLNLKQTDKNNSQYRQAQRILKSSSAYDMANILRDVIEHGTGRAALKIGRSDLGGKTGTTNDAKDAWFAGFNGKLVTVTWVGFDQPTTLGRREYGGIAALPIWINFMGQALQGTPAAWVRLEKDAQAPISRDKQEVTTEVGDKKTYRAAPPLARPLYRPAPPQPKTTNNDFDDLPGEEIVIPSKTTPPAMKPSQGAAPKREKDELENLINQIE
Put plainly: Bocillin-FL competition binding via gel filtration, A. baumannii PBP1a. The conditions noted are these: competition binding assay using Bocillin-FL via gel filtration; read-out: A. baumannii PBP1a Potency. The essentials: (§1)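 Competitive equilibrium binding with Bocillin-FL reporter: PBP pre-incubated with inhibitor dilutions, Bocillin-FL added, 15 min incubation. Labelled enzyme isolated by size-exclusion spin plates, fluorescence measured; EC50 obtained by fitting bound fraction against inhibitor concentration with a Hill-coefficient model.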
(In general: In gel filtration, larger molecules generally elute earlier.)

In test [2] the target is A. baumannii PBP2 (Acinetobacter baumannii, UniProt D0C8Z9). Put plainly: Bocillin-FL competition binding via gel filtration, A. baumannii PBP2. The method in brief:
as §1

Test [3] has as its system P. aeruginosa CDC-0090. Put plainly: microbe, parasite or virus in culture. The class given is cell-based. The conditions noted are these: Pseudomonas aeruginosa, CDC0090, read-out: Minimum inhibitory concentration, P. aeruginosa CDC-0090.

Sequence of A. baumannii PBP2 (D0C8Z9 whole entry): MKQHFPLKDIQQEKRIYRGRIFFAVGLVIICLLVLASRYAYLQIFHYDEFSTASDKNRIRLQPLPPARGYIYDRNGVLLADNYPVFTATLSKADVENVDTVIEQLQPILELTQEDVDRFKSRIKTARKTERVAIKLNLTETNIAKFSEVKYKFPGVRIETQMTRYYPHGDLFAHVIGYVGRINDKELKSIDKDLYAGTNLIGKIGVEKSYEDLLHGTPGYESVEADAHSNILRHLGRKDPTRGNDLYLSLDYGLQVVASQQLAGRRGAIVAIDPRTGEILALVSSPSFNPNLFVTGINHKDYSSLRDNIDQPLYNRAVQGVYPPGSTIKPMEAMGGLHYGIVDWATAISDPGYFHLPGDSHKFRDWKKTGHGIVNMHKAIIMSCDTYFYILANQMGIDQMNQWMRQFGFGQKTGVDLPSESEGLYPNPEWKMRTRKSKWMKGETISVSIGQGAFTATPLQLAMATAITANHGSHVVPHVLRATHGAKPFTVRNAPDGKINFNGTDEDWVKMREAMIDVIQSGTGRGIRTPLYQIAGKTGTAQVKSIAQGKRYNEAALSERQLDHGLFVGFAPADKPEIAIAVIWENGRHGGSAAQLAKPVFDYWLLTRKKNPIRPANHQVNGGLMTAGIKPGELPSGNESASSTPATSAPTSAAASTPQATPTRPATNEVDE

Turning to `O=C(NCCCS(=O)(=O)N1CCN(C(=O)NC(C(=O)N[C@H]2Cc3ccc(F)c(C(=O)O)c3OB2O)c2cc(F)c(O)c(O)c2Cl)C1=O)c1ccccc1` (stereo partly drawn) [Example 268, (3R)-3-(2-(3-((3-benzamidopropyl)sulfonyl)-2-oxoimidazolidine-1-carboxamido)-2-(2-chloro-5-fluoro-3,4-dihydroxyphenyl)acetamido)-7-fluoro-2-hydroxy-3,4-dihydro-2H-benzo[e][1,2]oxaborinine-8-carboxylic acid], the EC50 in test [1] and in test [2] was 10 to 50 µM throughout. Also, in test [3], the MIC fell in the range of 2 to 4 µg/mL (≈ 2.56 to 5.13 µM).
Turning to `O=C(NCCCS(=O)(=O)N1CCN(C(=O)N[C@@H](C(=O)N[C@H]2Cc3ccc(F)c(C(=O)O)c3OB2O)c2cc(F)c(O)c(O)c2Cl)C1=O)c1cccc(O)c1` [Example 271, (R)-3-((R)-2-(2-chloro-5-fluoro-3,4-dihydroxyphenyl)-2-(3-((3-(3-hydroxybenzamido)propyl)sulfonyl)-2-oxoimidazolidine-1-carboxamido)acetamido)-7-fluoro-2-hydroxy-3,4-dihydro-2H-benzo[e][1,2]oxaborinine-8-carboxylic acid], the EC50 in test [1] and in test [2] was under 10 µM throughout. The MIC in test [3] was 2 to 4 µg/mL (≈ 2.51 to 5.03 µM).
Take `O=C(NCCCS(=O)(=O)N1CCN(C(=O)NC(C(=O)N[C@H]2Cc3ccc(F)c(C(=O)O)c3OB2O)c2cc(F)c(O)c(O)c2Cl)C1=O)c1ccc(O)cc1` (stereo partly drawn) [Example 269, (3R)-3-(2-(2-chloro-5-fluoro-3,4-dihydroxyphenyl)-2-(3-((3-(4-hydroxybenzamido)propyl)sulfonyl)-2-oxoimidazolidine-1-carboxamido)acetamido)-7-fluoro-2-hydroxy-3,4-dihydro-2H-benzo[e][1,2]oxaborinine-8-carboxylic acid]: the EC50 in test [1] was under 10 µM; in test [2] it was 10 to 50 µM. The MIC in test [3] lay within 2 to 4 µg/mL (≈ 2.51 to 5.03 µM).
On the same counts, the results for `O=C(NCCN1CCN(C(=O)NC(C(=O)N[C@H]2Cc3ccc(F)c(C(=O)O)c3OB2O)c2cc(F)c(O)c(O)c2Cl)C(=O)C1=O)Nc1cccc(O)c1` (stereo partly drawn) [Example 220, (3R)-3-(2-(2-chloro-5-fluoro-3,4-dihydroxyphenyl)-2-(4-(2-(3-(3-hydroxyphenyl)ureido)ethyl)-2,3-dioxopiperazine-1-carboxamido)acetamido)-7-fluoro-2-hydroxy-3,4-dihydro-2H-benzo[e][1,2]oxaborinine-8-carboxylic acid] are under 10 µM, under 10 µM and under 1 µg/mL.
The corresponding values for `O=C(NCCCN1CCN(C(=O)NC(C(=O)N[C@H]2Cc3ccc(F)c(C(=O)O)c3OB2O)c2cc(F)c(O)c(O)c2Cl)C(=O)C1=O)c1ccccc1` (stereo partly drawn) [Example 202, (3R)-3-(2-(4-(3-benzamidopropyl)-2,3-dioxopiperazine-1-carboxamido)-2-(2-chloro-5-fluoro-3,4-dihydroxyphenyl)acetamido)-7-fluoro-2-hydroxy-3,4-dihydro-2H-benzo[e][1,2]oxaborinine-8-carboxylic acid] are 10 to 50 µM, 50 to 250 µM and 2 to 4 µg/mL (≈ 2.69 to 5.38 µM).
Take `O=C(NCCS(=O)(=O)N1CCN(C(=O)NC(C(=O)N[C@H]2Cc3ccc(F)c(C(=O)O)c3OB2O)c2cc(F)c(O)c(O)c2Cl)C1=O)c1cccc(O)c1` (stereo partly drawn) [Example 261, (3R)-3-(2-(2-chloro-5-fluoro-3,4-dihydroxyphenyl)-2-(3-((2-(3-hydroxybenzamido)ethyl)sulfonyl)-2-oxoimidazolidine-1-carboxamido)acetamido)-7-fluoro-2-hydroxy-3,4-dihydro-2H-benzo[e][1,2]oxaborinine-8-carboxylic acid]: the EC50 in test [1] and in test [2] was 10 to 50 µM throughout. Moreover, in test [3], the MIC lay within 2 to 4 µg/mL (≈ 2.56 to 5.12 µM).
